Patent US20040071768A1, “Compositions and methods for treating cancer” (Inex Pharmaceuticals Corporation, priority 1999, published 2004)
Where two headings read alike, the source gives them in different places.

Assays:
MX-1 breast xenografts = assay: Single dose anti-tumor activity, MX-1 breast xenograft; assay type: in vivo
Method: Female NCr nude mice were injected intravenously via the lateral tail vein on day 8 post-tumor-implantation with saline (♦), NVB at 34.0 mg/kg (◯) and 25.5 mg/kg (□), or NVB-TCS at 15.0 mg/kg (●) and 11.0 mg/kg (▪) at a drug-to-lipid ratio of 0.3:1 (w/w). The arrow on the x-axis denotes the day of drug administration. Data points represent mean±SEM (n=10). […]
Tumor models investigated included RXF393 (renal), MX-1 (breast), LX-1 (small cell lung cancer), PC-3 (prostate), and HT29 (colon). These models were known to be sensitive to vinorelbine. Tumor fragments were implanted subcutaneously in the flank of NCr nu/nu mice. […] Animal weights and tumor size were determined twice weekly.

DLD-1 colon xenografts = tested on: DLD-1 colon xenografts
Method: Female NCr nude mice were injected intravenously (q7dx3) via the lateral tail vein on days indicated by an asterisk (*). […] Irinotecan (⋄) was prepared in saline and injected iv (q4dx3) at a dose of 90 mg/kg/dose. Drug-to-lipid ratio was 0.3/1 (w/w). Data points represent median tumor volume (n=6).
The anti-tumor activity of multiple (q7d3) dose schedules of liposomal vinorelbine was evaluated in several human xenograft tumor models. The goal of this series of studies was to identify the benefits of encapsulation by evaluating a series of doses and determining the therapeutic index in several xenograft models. Models were selected based on the following criteria: (1) activity in the single dose studies, (2) a comprehensive literature review of vinca alkaloid efficacy, (3) a desire to include at least 2-3 models that represent the clinical use of vinorelbine, and (4) a desire to include models with a range of sensitivity to vinorelbine so that improvements resulting from the use of the liposome formulation might be identified. Based on these criteria, MX-1 and MDA-MB-435 breast models, the NCl-H460 NSCLC model and the HT-29 and DLD-1 colon models were chosen.
Therapeutic index (TI) is a parameter that quantifies the “safety factor” of a particular therapy. TI is a ratio of a toxicity parameter and a biological activity parameter. Therefore, a higher ratio represents a greater potential margin of safety. For these studies, TI is defined as follows: […]
The minimal effective dose (MED) was set according to NCl activity criteria as the dose resulting in an optimal % T/C of 40. This information was derived from Table 7.

[1] = cited from earlier work
[2] = mice; cited from earlier work
[3] = clinical hematological toxicity

CCC1=C[C@@H]2CN(C1)Cc1c([nH]c3ccccc13)[C@@](C(=O)OC)(c1cc3c(cc1OC)N(C)[C@H]1[C@@](O)(C(=O)OC)[C@H](OC(C)=O)[C@]4(CC)C=CCN5CC[C@]31[C@@H]54)C2 [VRL, 5′-noranhydrovinblastine]
% T/C (optimal % T/C following final treatment) (MX-1 breast xenografts; single i.v. dose 25.5 mg/kg): 13% | DRD (drug related deaths) (MX-1 breast xenografts; single i.v. dose 25.5 mg/kg): 1/10 | MWL (maximum mean weight loss per treatment group) (MX-1 breast xenografts; single i.v. dose 25.5 mg/kg): −14.8 | NCI Score (MX-1 breast xenografts; single i.v. dose 25.5 mg/kg): 1 | T-C (tumor growth delay to 1000 mm^3) (MX-1 breast xenografts; single i.v. dose 25.5 mg/kg): 13 | TF (tumor free animals at the end of study) (MX-1 breast xenografts; single i.v. dose 25.5 mg/kg): 1/9 | % T/C (optimal % T/C following final treatment) (MX-1 breast xenografts; single i.v. dose 34 mg/kg): 11% | DRD (drug related deaths) (MX-1 breast xenografts; single i.v. dose 34 mg/kg): 0/10 | MWL (maximum mean weight loss per treatment group) (MX-1 breast xenografts; single i.v. dose 34 mg/kg): −17.4 | NCI Score (MX-1 breast xenografts; single i.v. dose 34 mg/kg): 1 | T-C (tumor growth delay to 1000 mm^3) (MX-1 breast xenografts; single i.v. dose 34 mg/kg): 16 | TF (tumor free animals at the end of study) (MX-1 breast xenografts; single i.v. dose 34 mg/kg): 3/10 | % T/C (optimal % T/C following final treatment) (DLD-1 colon xenografts; 5 mg/kg i.v. q7dx3): 88% | DRD (drug related deaths, n = 6) (DLD-1 colon xenografts; 5 mg/kg i.v. q7dx3): 0 | NCI Score (DLD-1 colon xenografts; 5 mg/kg i.v. q7dx3): 0 | T-C (tumor growth delay to 1000 mm^3) (DLD-1 colon xenografts; 5 mg/kg i.v. q7dx3): 0.0 | TF (tumor free animals at the end of study) (DLD-1 colon xenografts; 5 mg/kg i.v. q7dx3, n=6): 0 | % T/C (optimal % T/C following final treatment) (DLD-1 colon xenografts; 10 mg/kg i.v. q7dx3): 58% | DRD (drug related deaths, n = 6) (DLD-1 colon xenografts; 10 mg/kg i.v. q7dx3): 0 | NCI Score (DLD-1 colon xenografts; 10 mg/kg i.v. q7dx3): 0 | T-C (tumor growth delay to 1000 mm^3) (DLD-1 colon xenografts; 10 mg/kg i.v. q7dx3): 4.7 | TF (tumor free animals at the end of study) (DLD-1 colon xenografts; 10 mg/kg i.v. q7dx3, n=6): 0 | % T/C (optimal % T/C following final treatment) (DLD-1 colon xenografts; 20 mg/kg i.v. q7dx3): −36% | DRD (drug related deaths, n = 6) (DLD-1 colon xenografts; 20 mg/kg i.v. q7dx3): 0 | NCI Score (DLD-1 colon xenografts; 20 mg/kg i.v. q7dx3): 2 | T-C (tumor growth delay to 1000 mm^3) (DLD-1 colon xenografts; 20 mg/kg i.v. q7dx3): 19.7 | TF (tumor free animals at the end of study) (DLD-1 colon xenografts; 20 mg/kg i.v. q7dx3, n=6): 0 | % T/C (optimal % T/C following final treatment) (DLD-1 colon xenografts; 30 mg/kg i.v. q7dx3): −100% | DRD (drug related deaths, n = 6) (DLD-1 colon xenografts; 30 mg/kg i.v. q7dx3): 2 | NCI Score (DLD-1 colon xenografts; 30 mg/kg i.v. q7dx3): 3 | T-C (tumor growth delay to 1000 mm^3) (DLD-1 colon xenografts; 30 mg/kg i.v. q7dx3): 26.4 | TF (tumor free animals at the end of study) (DLD-1 colon xenografts; 30 mg/kg i.v. q7dx3, n=6): 0 | anemia [1, 3]: 83% | leukopenia [1, 3]: 92% | thrombocytopenia [1, 3]: 5% | Peripheral neuropathy ([1]; clinical): 25% | phlebitis ([1]; clinical): 7% | published LD50 [2]: 34 mg/kg
